From article PMC12696090, “Enzyme engineering of cytochrome P450 RosC provides mechanistic insights into factors controlling iterative oxidation” (Applied Microbiology and Biotechnology, 2025)

Experiments:
[1] = molecular target: T1, RosC lacking the N-terminal 21 residues (Micromonospora rosaria, UniProt I7HHD0); experiment: X-ray crystal structure; assay type: binding; conditions: 2.3 Å; active site, C-20 oriented toward heme iron
T1 construct: N-terminal 21 residues deleted, His-tag cut with thrombin, expressed in E. coli BL21(DE3); crystallization construct

NHis-RosC [2] = molecular target: T2, NHis-RosC (Micromonospora rosaria, UniProt I7HHD0, P107S/L176Q); experiment: spectral substrate-binding assay (difference spectra); conditions: 50 mM Tris-HCl pH 7.5, 20% glycerol, room temperature, 1 μM enzyme; Type II spectral change
T2 construct: full-length, N-terminal His-tag kept (pET28b), expressed in E. coli BL21(DE3)

NHis-RosC [3] = molecular target: T3, NHis-RosC (Micromonospora rosaria, UniProt I7HHD0); experiment: as above; conditions: 50 mM Tris-HCl pH 7.5, 20% glycerol, room temperature, 1 μM enzyme; Type II spectral change
T3 construct: full-length, N-terminal His-tag kept (pET28b), expressed in E. coli BL21(DE3)

Kd (NHis-RosC [2]) | Kd (NHis-RosC [3]) | SMILES | X-ray crystal structure [1]
– | – | CC[C@H]1OC(=O)C[C@@H](O)[C@H](C)[C@@H](O[C@@H]2O[C@H](C)C[C@H](N(C)C)[C@H]2O)[C@@H](CCO)C[C@@H](C)C(=O)/C=C/[C@]2(C)O[C@H]2[C@@H]1C [RS-A] | crystal structures of the RosC in complex with RS-A and RS
1000 ± 200 nM | 1400 ± 300 nM | CC[C@H]1C[C@@H](C)C(=O)/C=C/[C@]2(C)O[C@H]2[C@H](C)[C@@H](CC)OC(=O)C[C@@H](O)[C@H](C)[C@H]1O[C@@H]1O[C@H](C)C[C@H](N(C)C)[C@H]1O [RS-B] | The crystal structure of RosC bound to RS-B
– | – | CC[C@H]1OC(=O)C[C@@H](O)[C@H](C)[C@@H](O[C@@H]2O[C@H](C)C[C@H](N(C)C)[C@H]2O)[C@@H](CC=O)C[C@@H](C)C(=O)/C=C/[C@]2(C)O[C@H]2[C@@H]1C [RS] | crystal structures of the RosC in complex with RS-A and RS
